The values that follow come from patent publication US20220153754A1 (JANSSEN SCIENCES IRELAND UNLIMITED COMPANY, priority 2019, published 2022).

In this test the test system is HBV. As to the kind of experiment: HBV replication inhibition assay (BDNA assay). The following applies: Hepatitis B virus, HepG2.2.15, 144 h, HepG2.2.15 cells, incubated with compound for 6 days, encapsidated HBV DNA from supernatant detected by branched DNA QuantiGene assay. The test is classed as cell-based. How it is done:
HBV replication inhibition by the disclosed compounds were determined in cells infected or transfected with HBV or cells with stably integrated HBV, such as HepG2.2.15 cells (Sells et al. 1987). In this example, HepG2.2.15 cells were maintained in cell culture medium containing 10% fetal bovine serum (FBS), Geneticin, L-glutamine, penicillin and streptomycin. HepG2.2.15 cells were seeded in 96-well plates at a density of 40,000 cells/well and were treated with serially diluted compounds at a final DMSO concentration of 0.5% either alone or in combination by adding drugs in a checker box format. Cells were incubated with compounds for three days, after which medium was removed and fresh medium containing compounds was added to cells and incubated for another three days. At day 6, supernatant was removed and treated with DNase at 37° C. for 60 minutes, followed by enzyme inactivation at 75° C. for 15 minutes. Encapsidated HBV DNA was released from the virions and covalently linked HBV polymerase by incubating in lysis buffer (Affymetrix QS0010) containing 2.5 μg proteinase K at 50° C. for 40 minutes. HBV DNA was denatured by addition of 0.2 M NaOH and detected using a branched DNA (BDNA) QuantiGene assay kit according to manufacturer recommendation (Affymetrix). HBV DNA levels were also quantified using qPCR, based on amplification of encapsidated HBV DNA extraction with QuickExtraction Solution (Epicentre Biotechnologies) and amplification of HBV DNA using HBV specific PCR probes that can hybridize to HBV DNA and a fluorescently labeled probe for quantitation. In addition, cell viability of HepG2.2.15 cells incubated with test compounds alone or in combination was determined by using CellTitre-Glo reagent according to the manufacturer protocol (Promega). The mean background signal from wells containing only culture medium was subtracted from all other samples, and percent inhibition at each compound concentration was calculated by normalizing to signals from HepG2.2.15 cells treated with 0.5% DMSO using equation E1.
where DMSOave is the mean signal calculated from the wells that were treated with DMSO control (0% inhibition control) and Xi is the signal measured from the individual wells. EC50 values, effective concentrations that achieved 50% inhibitory effect, were determined by non-linear fitting using Graphpad Prism software (San Diego, Calif.) and equation E2.
where Y represents percent inhibition values and X represents the logarithm of compound concentrations.
Selected disclosed compounds were assayed in the HBV replication assay (BDNA assay), as described above, and a representative group of these active compounds is shown in Table 3.

Some results are limits rather than exact numbers.

Turning to `Cn1cc2c(n1)-c1c3c(nn1CCC2)CCN(C(=O)Nc1ccc(F)c(Cl)c1)C3` [Example 29, N-(3-Chloro-4-fluorophenyl)-2-methyl-4,5,6,9,10,12-hexahydropyrazolo[3,4-c]pyrido[4′,3′:3,4]pyrazolo[1,5-a]azepine-11(2H)-carboxamide], the concentration giving a half-maximal response (EC50) was found to be 3.1 µM.
Consider `C[C@@H]1Cc2nn3c(c2CN1C(=O)Nc1ccc(F)c(C(F)(F)F)c1)-c1oncc1CCC3` [Example 15, (10R)—N-(4-Fluoro-3-(trifluoromethyl)phenyl)-10-methyl-5,6,9,10-tetrahydro-4H-isoxazolo[5,4-c]pyrido[4′,3′:3,4]pyrazolo[1,5-a]azepine-11(12H)-carboxamide], for which the concentration giving a half-maximal response (EC50) came out at 0.083 µM.
The value for `C[C@@H]1Cc2nn3c(c2CN1C(=O)Nc1ccc(F)c(C#N)c1)-c1ncccc1CCC3` [Example 16, (11R)—N-(3-Cyano-4-fluorophenyl)-11-methyl-6,7,10,11-tetrahydro-5H-pyrido[2,3-c]pyrido[4′,3′:3,4]pyrazolo[1,5-a]azepine-12(13H)-carboxamide] was 0.33 µM; that for `N#Cc1cc(NC(=O)N2CCc3nn4c(c3C2)-c2n[nH]cc2CCC4)ccc1F` [Example 26, N-(3-Cyano-4-fluorophenyl)-4,5,6,9,10,12-hexahydropyrazolo[3,4-c]pyrido[4′,3′:3,4]pyrazolo[1,5-a]azepine-11(2H)-carboxamide] was 0.023 µM.
Turning to `C[C@@H]1Cc2nn3c(c2CN1C(=O)Nc1ccc(F)c(C#N)c1)-c1oncc1CCC3` [Example 14, (10R)—N-(3-Cyano-4-fluorophenyl)-10-methyl-5,6,9,10-tetrahydro-4H-isoxazolo[5,4-c]pyrido[4′,3′:3,4]pyrazolo[1,5-a]azepine-11(12H)-carboxamide], the concentration for a half-maximal effect (EC50) came to 0.059 µM.
For `C=C1Cc2cnoc2-c2c3c(nn2C1)CCN(C(=O)Nc1ccc(F)c(C#N)c1)C3` [Example 9, N-(3-Cyano-4-fluorophenyl)-5-methylene-5,6,9,10-tetrahydro-4H-isoxazolo[5,4-c]pyrido[4′,3′:3,4]pyrazolo[1,5-a]azepine-11(12H)-carboxamide], the concentration for a half-maximal effect (EC50) worked out at 0.8 µM.
Next, `C[C@@H]1Cc2nn3c(c2CN1C(=O)Nc1ccc(F)c(C(F)(F)F)c1)-c1nocc1CCC3` [Example 19, (10R)—N-(4-Fluoro-3-(trifluoromethyl)phenyl)-10-methyl-5,6,9,10-tetrahydro-4H-isoxazolo[3,4-c]pyrido[4′,3′:3,4]pyrazolo[1,5-a]azepine-11(12H)-carboxamide]: 0.027 µM; `C[C@@H]1Cc2nn3c(c2CN1C(=O)Nc1ccc(F)c(Cl)c1)-c1nncn1CCC3` [Example 22, (R)—N-(3-Chloro-4-fluorophenyl)-11-methyl-6,7,10,11-tetrahydro-5H-pyrido[4′,3′:3,4]pyrazolo[1,5-a][1,2,4]triazolo[3,4-c][1,4]diazepine-12(13H)-carboxamide]: greater than 4 µM; `O=C(Nc1ccc(F)c(C(F)(F)F)c1)N1CCc2nn3c(c2C1)-c1nocc1C[C@@H](COCC(F)F)C3` (single isomer, unassigned) [Example 8, (5R*)-5-((2,2-Difluoroethoxy)methyl)-N-(4-fluoro-3-(trifluoromethyl)phenyl)-5,6,9,10-tetrahydro-4H-isoxazolo[3,4-c]pyrido[4′,3′:3,4]pyrazolo[1,5-a]azepine-11(12H)-carboxamide]: 0.026 µM.
Turning to `N#Cc1cc(NC(=O)N2CCc3nn4c(c3C2)-c2nocc2CC(CO)C4)ccc1F` (centres unmarked) [Example 3, N-(3-Cyano-4-fluorophenyl)-5-(hydroxymethyl)-5,6,9,10-tetrahydro-4H-isoxazolo[3,4-c]pyrido[4′,3′:3,4]pyrazolo[1,5-a]azepine-11(12H)-carboxamide], the half-maximal effective concentration (EC50) was found to be 0.023 µM.
Next, `O=C(Nc1ccc(F)c(Cl)c1)N1CCc2nn3c(c2C1)-c1n[nH]cc1CCC3` [Example 25, N-(3-Chloro-4-fluorophenyl)-4,5,6,9,10,12-hexahydropyrazolo[3,4-c]pyrido[4′,3′:3,4]pyrazolo[1,5-a]azepine-11(2H)-carboxamide]: 0.028 µM.
